SMILES strings stand for the structures. Calls of active or inactive are those of the source.

The target of one assay is Transthyretin (Homo sapiens, UniProt P02766). Put plainly: Luminescence-based cell-based high throughput dose response assay to identify activators of Transthyretin (TTR) transcription. The class given is functional.
Assay [1] has as its target Metabotropic glutamate receptor 7 (Homo sapiens, UniProt Q14831). Put plainly: mGlu7 positive allosteric modulators, dose response, cell-based, calcium mobilization, Galpha15 (AID 743384). Type of assay: functional. (In general: A change in cytosolic calcium serves as a functional read-out for many receptors and channels.)
Assay [2] can be described thus: P. falciparum ATP4 D1247Y mutant growth inhibitors, dose response, NITD609-resistant line, SYBR Green, dry powder (AID 1159571).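 Also: parasites synchronized at ring stage by sorbitol before testing.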 The class given is functional, cell-based.
Assay [3] is described as follows: P. falciparum 3D7-ScDHODH growth inhibitors, dose response, SYBR Green, dry powder samples (AID 1159570).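 Also: parasite growth measured after 72 hours of compound exposure.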 The class given is functional, cell-based.
Assay [4] can be described thus: P. falciparum Dd2 growth inhibitors, dose response, SYBR Green, cherry-picked samples (AID 1159567). The class given is functional, cell-based.
The nature of assay [5]: P. falciparum Dd2 growth inhibitors, dose response, SYBR Green, dry powder samples (AID 1159566).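 Also: potency for growth inhibition with lower SYBR green DNA signal.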 The class given is functional, cell-based.
For assay [6], the target named is T1, Phospholipase D2 (Homo sapiens, UniProt O14939). Put plainly: PLD2 Cellular Concentration Response Study. Type of assay: functional.
T1 sequence (O14939 whole entry): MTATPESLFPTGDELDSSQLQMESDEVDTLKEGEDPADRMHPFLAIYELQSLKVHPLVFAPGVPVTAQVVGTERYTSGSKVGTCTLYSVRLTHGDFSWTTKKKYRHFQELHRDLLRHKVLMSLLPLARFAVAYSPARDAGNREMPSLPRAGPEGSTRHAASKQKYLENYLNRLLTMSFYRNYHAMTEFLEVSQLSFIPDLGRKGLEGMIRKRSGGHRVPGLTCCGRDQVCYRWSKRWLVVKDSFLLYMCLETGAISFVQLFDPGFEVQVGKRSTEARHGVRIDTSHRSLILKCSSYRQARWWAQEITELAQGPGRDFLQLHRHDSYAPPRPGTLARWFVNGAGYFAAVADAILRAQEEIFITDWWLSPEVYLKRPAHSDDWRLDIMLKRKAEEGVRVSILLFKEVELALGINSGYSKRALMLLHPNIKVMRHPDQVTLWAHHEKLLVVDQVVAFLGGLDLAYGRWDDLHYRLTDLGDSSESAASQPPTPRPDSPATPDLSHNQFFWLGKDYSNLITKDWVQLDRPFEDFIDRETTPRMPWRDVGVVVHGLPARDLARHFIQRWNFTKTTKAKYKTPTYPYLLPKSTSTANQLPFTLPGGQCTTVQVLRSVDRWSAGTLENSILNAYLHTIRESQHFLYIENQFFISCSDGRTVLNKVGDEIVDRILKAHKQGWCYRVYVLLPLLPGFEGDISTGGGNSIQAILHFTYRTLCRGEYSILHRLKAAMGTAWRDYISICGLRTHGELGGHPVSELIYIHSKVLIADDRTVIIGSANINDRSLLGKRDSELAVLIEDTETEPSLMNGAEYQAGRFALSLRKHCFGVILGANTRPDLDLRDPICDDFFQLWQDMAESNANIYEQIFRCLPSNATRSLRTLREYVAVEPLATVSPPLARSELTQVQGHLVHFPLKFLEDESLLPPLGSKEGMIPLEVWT
The target of assay [7] is T1, Phospholipase D2. Briefly: Discovery of PLD2 inhibitors using the Purified Enzyme Concentration Response Assay. The class given is functional.
A further assay has as its target Phospholipase D1 (Homo sapiens, UniProt Q13393). Put plainly: PLD1 Cellular Concentration Response Study. The class given is functional.

Sequence of Metabotropic glutamate receptor 7 (Q14831 whole entry): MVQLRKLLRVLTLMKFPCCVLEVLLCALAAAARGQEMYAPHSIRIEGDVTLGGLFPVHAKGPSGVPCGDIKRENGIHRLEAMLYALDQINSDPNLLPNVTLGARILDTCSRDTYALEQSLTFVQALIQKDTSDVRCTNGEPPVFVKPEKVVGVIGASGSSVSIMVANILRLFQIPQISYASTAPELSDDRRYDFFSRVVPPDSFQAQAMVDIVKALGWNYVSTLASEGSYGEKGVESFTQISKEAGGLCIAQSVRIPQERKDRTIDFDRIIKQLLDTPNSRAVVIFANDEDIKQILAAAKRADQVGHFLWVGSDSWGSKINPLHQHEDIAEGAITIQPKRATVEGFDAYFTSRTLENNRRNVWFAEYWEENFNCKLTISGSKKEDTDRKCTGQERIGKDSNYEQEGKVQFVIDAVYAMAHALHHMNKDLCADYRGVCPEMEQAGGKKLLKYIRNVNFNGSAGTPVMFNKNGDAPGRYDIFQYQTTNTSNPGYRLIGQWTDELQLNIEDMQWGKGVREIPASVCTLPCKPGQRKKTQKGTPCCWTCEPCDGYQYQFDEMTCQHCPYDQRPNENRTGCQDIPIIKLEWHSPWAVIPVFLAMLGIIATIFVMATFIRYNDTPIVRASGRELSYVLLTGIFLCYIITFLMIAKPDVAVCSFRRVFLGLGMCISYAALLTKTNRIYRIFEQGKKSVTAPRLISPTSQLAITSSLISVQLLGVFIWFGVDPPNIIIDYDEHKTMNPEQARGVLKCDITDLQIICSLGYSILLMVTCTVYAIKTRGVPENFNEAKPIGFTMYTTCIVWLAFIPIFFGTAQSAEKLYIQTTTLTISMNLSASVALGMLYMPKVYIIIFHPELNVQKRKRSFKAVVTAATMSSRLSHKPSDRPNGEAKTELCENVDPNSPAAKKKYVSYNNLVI
Sequence of Phospholipase D1 (Q13393 whole entry): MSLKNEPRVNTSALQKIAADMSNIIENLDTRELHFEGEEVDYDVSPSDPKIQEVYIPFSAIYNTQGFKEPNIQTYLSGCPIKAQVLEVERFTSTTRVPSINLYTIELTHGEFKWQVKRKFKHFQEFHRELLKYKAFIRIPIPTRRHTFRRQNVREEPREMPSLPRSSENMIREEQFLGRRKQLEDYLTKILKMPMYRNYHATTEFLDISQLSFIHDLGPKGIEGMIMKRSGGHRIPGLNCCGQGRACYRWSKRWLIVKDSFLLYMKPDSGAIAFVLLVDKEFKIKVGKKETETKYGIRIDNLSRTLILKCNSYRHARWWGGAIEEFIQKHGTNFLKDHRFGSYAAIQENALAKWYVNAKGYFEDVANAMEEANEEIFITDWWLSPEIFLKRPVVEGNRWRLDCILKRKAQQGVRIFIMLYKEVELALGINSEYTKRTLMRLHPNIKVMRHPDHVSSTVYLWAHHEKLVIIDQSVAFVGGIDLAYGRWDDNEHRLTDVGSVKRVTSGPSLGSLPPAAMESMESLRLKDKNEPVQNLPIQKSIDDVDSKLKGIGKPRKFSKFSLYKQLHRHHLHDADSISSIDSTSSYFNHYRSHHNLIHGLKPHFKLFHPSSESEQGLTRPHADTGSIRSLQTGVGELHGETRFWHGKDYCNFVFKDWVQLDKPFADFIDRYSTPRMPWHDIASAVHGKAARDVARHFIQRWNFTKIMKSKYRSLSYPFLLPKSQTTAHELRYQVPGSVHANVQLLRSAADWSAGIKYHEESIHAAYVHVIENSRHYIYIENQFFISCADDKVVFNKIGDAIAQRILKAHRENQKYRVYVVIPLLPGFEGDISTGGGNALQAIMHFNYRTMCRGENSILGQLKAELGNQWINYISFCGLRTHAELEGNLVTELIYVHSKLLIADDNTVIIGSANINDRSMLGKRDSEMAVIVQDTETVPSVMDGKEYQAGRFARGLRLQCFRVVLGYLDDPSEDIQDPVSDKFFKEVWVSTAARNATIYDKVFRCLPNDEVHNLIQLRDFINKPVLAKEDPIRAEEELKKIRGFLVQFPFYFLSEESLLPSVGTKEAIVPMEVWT

As a reminder, the EC50 is the concentration needed to bring the measured effect to its halfway point. In the case of `C/C(=N\Nc1ncc(Br)cn1)c1cccc([N+](=O)[O-])c1`, the EC50 at Transthyretin was > 167 µM (inactive).

On to `COC(=O)c1ccc(-n2c(C)cc(C(=O)COc3ccc(NC(C)=O)cc3)c2C)cc1`, for which, in assay [1], the half-maximal effective concentration (EC50) is 2.4 µM (active).

What is called AC50 is the concentration at which the activity in the assay is half-maximal. Consider `COc1cccc(C#Cc2cnc3c(c2)C(=O)N([C@@H](C)CO)C[C@H](C)[C@@H](CN(C)C(=O)C2CCCCC2)O3)c1`, for which the concentration at half-maximal activity (AC50) in assay [2] was 0.972 µM (active); in assay [3], 0.783 µM (active); in [4], 0.889 µM (active); in assay [5], 0.635 µM (active).

The IC50 is the concentration that inhibits the measured activity by half. For the compound `O=C(NCCN1CCC2(CC1)C(=O)NCN2Cc1cccnc1)c1cc2ccccc2o1`, the IC50 was 2.5 µM (active) on Phospholipase D2 [6], 12.5 µM (active) on Phospholipase D2 [7] and 20 µM (active) on Phospholipase D1.

(Values after ChEMBL document CHEMBL1201862, “PubChem BioAssay data set” (2004).)
